{"source": "patent US20240318141A1", "about": "“MATURATION AGENT” (Orizuru Therapeutics, Inc., priority 2021, published 2024)", "key": {"[1]": {"test_system": "non-endocrine cells in insulin-producing cell population (QHJI-I14s04 iPS cell line)", "test": "Cisplatin or docetaxel treatment in step 6), then extended culture in basal medium containing EGF (Example 2)", "assay_type": "cell-based, human", "source_text": "The differentiation of a QHJI-I14s04 iPS cell line into an insulin-producing cell population was induced by the three-dimensional culture method using a bioreactor according to steps 1) to 6) described above and the previous report (Nature Biotechnology 2014; 32: 1121-1133). Specifically, the iPS cells were subjected to the first culture in a medium (DMEM/1% B-27 (INS+)/Penicillin Streptomycin/dimethyl sulfoxide) containing differentiation-inducing factors (GSK3β inhibitor, ROCK inhibitor and low dose of activin A) under conditions causing action of insulin, and subsequently subjected to the second culture in a medium (DMEM/1% B-27 (INS−)/Penicillin Streptomycin/dimethyl sulfoxide) containing a differentiation-inducing factor (low dose of activin A) under conditions causing no action of insulin to obtain a definitive endoderm cell population. Further, a pancreatic endocrine progenitor cell population obtained by the induction of differentiation from the definitive endoderm cell population was cultured in a medium (Improved MEM/1% B-27 (INS+)/Penicillin Streptomycin) containing differentiation-inducing factors (ALK5 inhibitor II, T3, LDN, Y-secretase inhibitor RO, and ascorbic acid) and FGF receptor 1 inhibitor (PD-166866) to obtain an insulin-producing cell population.\nAn insulin-producing cell population obtained without the addition of cisplatin and docetaxel was used as a control cell population and subjected to extended culture in the same manner as above.\nMarker protein expression (PDX1, CHGA, and Ki67) in each insulin-producing cell population before the start of and after the completion of extended culture was measured by flow cytometry. Samples after the completion of extended culture were collected by sampling three times from the same culture container. The number of cells was measured in an automatic cell counter at the time of sample preparation for flow cytometry, and the total number of cells per mL of the bioreactor was calculated. The number of CHGA-positive cells, the number of PDX1-positive and CHGA-negative cells, and the number of PDX1-negative and CHGA-negative cells were calculated from the obtained total number of cells and the flow cytometry results."}, "[2]": {"test_system": "insulin-producing cell population (QHJI-114s04 iPS cell line)", "test": "Marker protein expression by flow cytometry of insulin-producing cell population prepared by addition of docetaxel (Example 3)", "assay_type": "cell-based, human", "source_text": "The differentiation of a QHJI-114s04 iPS cell line into insulin-producing cells was induced by the three-dimensional culture method using a bioreactor and a multiwell plate according to steps 1) to 6) described above and the previous report (Nature Biotechnology 2014; 32: 1121-1133). Specifically, the iPS cells were subjected to the first culture in a medium (DMEM/1% B-27 (INS+)/Penicillin Streptomycin/dimethyl sulfoxide) containing differentiation-inducing factors (GSK3β inhibitor, ROCK inhibitor and low dose of activin A) under conditions causing action of insulin, and subsequently subjected to the second culture in a medium (DMEM/1% B-27 (INS−)/Penicillin Streptomycin/dimethyl sulfoxide) containing a differentiation-inducing factor (low dose of activin A) under conditions causing no action of insulin to obtain definitive endoderm cells. Further, a pancreatic endocrine progenitor cell population obtained by the induction of differentiation from the definitive endoderm cells was cultured in a medium (MCDB131/20 mM Glucose/NaHCO3/FAF-BSA/ITS-X/Glutamax/Penicillin Streptomycin) containing differentiation-inducing factors (ALK5 inhibitor II, T3, LDN, γ-secretase inhibitor RO, […]) to obtain an insulin-producing cell population. The exchange from the bioreactor to the multiwell plate was carried out in step 6).\nMarker protein expression (NKX6.1, C-peptide (insulin), CHGA, and Ki67) in each insulin-producing cell population after the completion of culture was measured by flow cytometry. Respective samples were collected by sampling from separate culture containers. The number of cells was measured in an automatic cell counter at the time of sample preparation for flow cytometry, and the total number of cells per well of the multiwell plate was calculated."}, "[3]": {"test_system": "non-endocrine cells in graft (Outgrowth, Cyst)", "test": "Evaluation of non-endocrine cells in graft and protein expression by HE and immunohistological staining (Example 5)", "assay_type": "in vivo, mouse", "conditions": "graft 6 months after transplantation", "description": "The excised graft was fixed and dehydrated, and a paraffin section was then prepared and subjected to HE staining and immunohistological staining for the expression of the proteins of interest (insulin, glucagon, Ki67, human nucleus, PDX1, and CK19). The presence or absence of non-endocrine cells was confirmed on the basis of the morphology and staining image thereof. The number and frequency of non-endocrine cells appearing in the graft were counted as total numbers from four tests conducted with cells derived from a plurality of batches treated in the same manner.\nOutgrowth shown in Table 9 refers to a population of human nucleus-positive, PDX1-negative, and Ki67-positive non-endocrine cells, and its presence was determined from morphology by HE staining as well as by immunohistological staining. Cyst shown in Table 9 refers to human nucleus-positive, PDX1-positive, and CK19-positive non-endocrine duct cells, and its presence was determined from a duct form by HE staining as well as by immunohistological staining."}, "[4]": {"conditions": "after extended culture 4 weeks, EGF present, average of three samplings"}, "[5]": {"conditions": "after extended culture 4 weeks, EGF present, single samplings"}, "[6]": {"conditions": "after extended culture involving EGF, with respect to control cell population"}, "[7]": {"conditions": "s6d11 (before extended culture); 3 μM cisplatin or 1 μM docetaxel for 7 days from day 4 of step 6)"}}, "note": "“And” between values parts separate entries of the source, which are not always exact repeats. Identical values can stand only once.", "data": [{"compound": "CC(=O)O[C@@]12CO[C@@H]1C[C@H](O)[C@@]1(C)C(=O)[C@H](O)C3=C(C)[C@@H](OC(=O)[C@H](O)[C@@H](NC(=O)OC(C)(C)C)c4ccccc4)C[C@@](O)([C@@H](OC(=O)c4ccccc4)[C@H]21)C3(C)C", "note": "[Docetaxel, (−)-(1S,2S,3R,4S,5R,7S,8S,10R,13S)-4-Acetoxy-2-benzoyloxy-5,20-epoxy-1,7,10-trihydroxy-9-oxotax-11-en-13-yl (2R,3S)-3-tert-butoxycarbonylamido-2-hydroxy-3-phenylpropionate]", "values": [{"measurement": "population exhibiting marked increase by extended culture (table footnote)", "setting": "[1]; 1 μM docetaxel, extended culture with EGF", "result": "No population exhibited marked increase by extended culture"}, {"measurement": "The number of cells CHGA+, average", "setting": "[1]; [4]", "result": "22 ×10^4 cells/mL"}, {"measurement": "The number of cells PDX+/CHGA−, average", "setting": "[1]; [4]", "result": "1.7 ×10^4 cells/mL"}, {"measurement": "The number of cells PDX−/CHGA−, average", "setting": "[1]; [4]", "result": "2.8 ×10^4 cells/mL"}, {"measurement": "Total number of cells, average", "setting": "[1]; [4]", "result": "27 ×10^4 cells/mL"}, {"measurement": "The number of cells CHGA+", "setting": "[1]; [5]", "result": "21 ×10^4 cells/mL and 22 ×10^4 cells/mL and 24 ×10^4 cells/mL"}, {"measurement": "The number of cells PDX+/CHGA−", "setting": "[1]; [5]", "result": "2.0 ×10^4 cells/mL and 1.5 ×10^4 cells/mL"}, {"measurement": "The number of cells PDX−/CHGA−", "setting": "[1]; [5]", "result": "3.1 ×10^4 cells/mL and 2.7 ×10^4 cells/mL"}, {"measurement": "Total number of cells", "setting": "[1]; [5]", "result": "26 ×10^4 cells/mL and 28 ×10^4 cells/mL"}, {"measurement": "proportion of PDX1-negative and CHGA-negative (PDX1−/CHGA−) cells", "setting": "[1]; [6]", "result": "drastically decreased"}, {"measurement": "proportion of PDX1-positive and CHGA-negative (PDX1+/CHGA−) cells", "setting": "[1]; [6]", "result": "drastically decreased"}, {"measurement": "total number of cells after extended culture (in words)", "setting": "[1]; extended culture involving EGF", "result": "decreased"}, {"measurement": "The number of cells CHGA+", "setting": "[1]; [7]", "result": "73 ×10^4 cells/mL"}, {"measurement": "The number of cells PDX+/CHGA−", "setting": "[1]; [7]", "result": "1.3 ×10^4 cells/mL"}, {"measurement": "The number of cells PDX−/CHGA−", "setting": "[1]; [7]", "result": "0.1 ×10^4 cells/mL"}, {"measurement": "Total number of cells", "setting": "[1]; [7]", "result": "74 ×10^4 cells/mL"}, {"measurement": "number of CHGA-positive endocrine cells after extended culture (in words)", "setting": "[1]; with respect to control cell population", "result": "not changed"}, {"measurement": "increase of proportion of INS-positive and NKX6.1-positive cells", "setting": "[2]; 1 μM docetaxel, 7 days from day 4 of step 6), with respect to control cell population", "result": "about 10%"}, {"measurement": "Total number of cells", "setting": "[2]; docetaxel treatment 1, 3 or 10 μM", "result": "not changed"}, {"measurement": "abundance of CHGA-negative and Ki67-positive (CHGA−/Ki67+) cells", "setting": "[2]; medium with PD-166866, irrespective of presence or absence of docetaxel treatment, without extended culture", "result": "≤ 0.1", "unit": "%"}, {"measurement": "action on proportion of INS-positive and NKX6.1-positive cells at higher concentration", "setting": "[2]; up to the docetaxel concentration of 10 μM", "result": "not changed"}, {"measurement": "Ki67-positive cells in graft (immunohistological staining)", "setting": "[3]", "result": "slightly scattered"}, {"measurement": "insulin-positive and glucagon-positive cells in graft (immunohistological staining)", "setting": "[3]", "result": "many insulin-positive and glucagon-positive cells were confirmed throughout the whole graft"}, {"measurement": "Frequency of appearance (%), Cyst", "setting": "[3]; total of 4 tests, 21 animals", "result": 10, "unit": "%"}, {"measurement": "Frequency of appearance (%), Outgrowth", "setting": "[3]; total of 4 tests, 21 animals", "result": 0, "unit": "%"}, {"measurement": "The number of appearance, Cyst", "setting": "[3]; total of 4 tests, 21 animals", "result": 2}, {"measurement": "The number of appearance, Outgrowth", "setting": "[3]; total of 4 tests, 21 animals", "result": 0}]}]}
